# Measurements published in US20240041840A1 (Areteia Therapeutics, Inc., priority 2020, published 2024).
# Read-outs that look alike come from different tables or passages of the source.
# Key:
# [1] = system: subjects with eosinophilic chronic rhinosinusitis with nasal polyps; conditions: 150 mg twice daily
# Description: Current asthma medications work in a variety of ways. […] The co-primary endpoints were change in AEC and change in total polyp score (TPS) from baseline to Month 6, with additional clinical and histologic endpoints assessed.
# [2] = system: eosinophil peroxidase (EPX); conditions: worded as embodiment
# Protocol: Eosinophil peroxidase (EPX) is a granule protein uniquely secreted by eosinophils which can be detected and quantified using an enzyme-linked immunosorbent assay (ELISA). EPX is measured from mucosal swabs or sputum samples. […] In embodiments, normal nasal EPX levels are less than about 10 ng/mg of total protein, whereas moderate to severe asthma of the eosinophilic phenotype may be diagnosed as having nasal EPX levels greater than about 10 ng/mg of total protein. […] Normal induced sputum EPX levels may be less than about 200 ng/mL/g recovered sputum, whereas moderate to severe asthma of the eosinophilic phenotype is diagnosed as having induced sputum EPX levels greater than about 200 ng/mL/g recovered sputum.
# Evaluation of Efficacy: Blood eosinophil count, changes in pulmonary function (FEV1), Asthma Control Questionnaire (ACQ-6), Asthma Control Questionnaire (ACQ-7), Asthma Quality of Life Questionnaire (AQLQ), exhaled nitric oxide, pharyngeal and nasal eosinophil peroxidase were collected periodically during the study.
# blood eosinophils [3] = conditions: 150 mg twice daily, after 6 months, open label, 16 subjects with eosinophilic chronic rhinosinusitis with nasal polyps
# blood eosinophils [4] = system: blood eosinophils
# Description: The protocol enrolled symptomatic eosinophilic asthmatic subjects 18-75 years with moderate to greater disease severity as defined by GINA steps 3-5.
# This clinical study is a randomized, double-blind, placebo-controlled, parallel-group, dose-ranging, multi-center study. Subjects received open-label placebo during the Run-in Period of the study, and subjects received double-blind study drug during the Primary Assessment Period of the study.
# Duration of Treatment and Follow-up included: 1) Run-in Period: Screening through initiation of Baseline. Subjects underwent Screening assessments to assess whether they satisfied the eligibility criteria. They participated in the Run-in Period (of at least 12 days duration) to confirm a stable asthma medication regimen and to assess adherence to the dosing schedule, after which eligible subjects were randomized. 2) Primary Assessment Period: Baseline through completion of Week 12. After the collection of all Baseline assessments, subjects began receiving study drug for 12 weeks. […] The Week 12 visit was the Primary Outcome Visit for the study. Subjects took the last dose of study drug at the Week 12 visit. 3) Eosinophil Recovery Period: Conclusion of Week 12 assessments through Week 24. Following the Primary Assessment Period, subjects entered the Eosinophil Recovery Period. […] Specific sites were designated to perform either Week 16 or Week 18 visits for subjects enrolled at their site. The Week 20 and Week 24 visits were at the site or at a designated remote laboratory facility.
# The study population was limited to subjects with a physician diagnosis of asthma for ≥12 months and eligibility criteria described herein.
# The primary endpoint of this study was the change in blood absolute eosinophil count from Baseline to Week 12. Absolute eosinophil counts were transformed to the log 10 scale. To avoid taking the log of zero, zeroes were replaced with 5 cells/μL in conventional units and 0.005×10^9/L in the International System of Units (SI), which is 50% of the lower limit of quantification. The geometric mean of all eosinophil counts obtained between the Screening and Baseline visits were used to establish the baseline eosinophil count used in the efficacy analyses.
# The primary analysis was a mixed-effect model with repeated-measures (MMRM) with terms for baseline, the 3 level of GINA treatment step as a categorical variable, treatment, visit, treatment by visit interaction, and baseline by visit interaction as fixed effects, and subjects as a random effect. An unstructured covariance was used.
# Estimated LS means of treatment effects and estimated difference in treatment effects at each visit were back transformed to the original scale to present estimated geometric means for treatment effects and ratio of geometric means of treatment effects along with 95% CI.
# [5] = 12 subjects with a history of asthma
# [6] = 75 mg/day, Week 12, efficacy population N = 22
# [7] = 150 mg/day, Week 12, efficacy population N = 24
# [8] = 300 mg/day, Week 12, efficacy population N = 28
smiles,measurement,setting,value
"CCCN[C@@H]1CCc2nc(N)sc2C1 [dexpramipexole, (6R)-2-amino-4,5,6,7-tetrahydro-6-(propylamino) benzothiazole]","Total polyp score (TPS), mean",[1]; 3 months (Baseline 5.29),5.50
same,"Other indices of chronic rhinosinusitis disease activity (SNOT-22, sinus CT score, Sniffin Sticks olfaction test)",[1]; 6 month trial,not improved
same,"Total polyp score (TPS), mean",[1]; 6 months (Baseline 5.29),5.42
same,ACQ6 values,[1]; [5],unchanged
same,FEV1 values,[1]; [5],unchanged
same,Reduction of the level of nasal EPX,[2]; daily dose of about 75 mg,about 36%
same,Reduction of the level of nasal EPX,[2]; daily dose of about 150 mg,about 83%
same,Reduction of the level of nasal EPX,[2]; daily dose of about 300 mg,about 89%
same,Lowering of the AEC,blood eosinophils [3],94%
same,"Subjects with AEC ≤50 cells/pL, %",blood eosinophils [4]; [6],(22.7%)
same,"Subjects with AEC ≥50% reduction from Baseline to Week 12, %",blood eosinophils [4]; [6],(50.07%)
same,"Subjects with AEC ≤50 cells/pL, %",blood eosinophils [4]; [7],(37.5%)
same,"Subjects with AEC ≥50% reduction from Baseline to Week 12, %",blood eosinophils [4]; [7],(62.5%)
same,"Subjects with AEC ≤50 cells/pL, %",blood eosinophils [4]; [8],(42.9%)
same,"Subjects with AEC ≥50% reduction from Baseline to Week 12, %",blood eosinophils [4]; [8],(57.1%)
same,Reduction in AEC,"blood eosinophils [4]; Week 12 compared with baseline, up to 300 mg/day",≤ 80%
same,Dexpramipexole treated subjects with a greater than or equal to 50% reduction in AEC,blood eosinophils [4]; all dose groups,approximately 60%
same,Number of hematologic responders compared with placebo,"blood eosinophils [4]; blood eosinophil count of ≤50 cells/μL at week 12, dose-dependent",significantly increased
